Measurements: patent US20150140002A1, “USE OF A PCSK9 INHIBITOR TO TREAT […]” (Sanofi, priority 2013, published 2015)

Tested on: patients with primary hypercholesterolemia (heFH and non-FH) who are intolerant to statins
Settings: in vivo

CC(C)c1c(C(=O)Nc2ccccc2)c(-c2ccccc2)c(-c2ccc(F)cc2)n1CC[C@@H](O)C[C@@H](O)CC(=O)O [atorvastatin]
Cardiac disorders (SOC) (human): 2 (3.2%) patients (%) | Ear and labyrinth disorders (SOC) (human): 1 (1.6%) patients (%) | General allergic TEAEs (MedDRA SMQ Hypersensitivity) (human): 4 (6.3%) patients (%) | Investigations (SOC) (human): 3 (4.8%) patients (%) | Myalgia (human): 27% | Psychiatric disorders (SOC) (human): 2 (3.2%) patients (%) | Skeletal muscle-related TEAEs (CMQ preferred term) (human): 25 (39.7%) patients (%) | TEAEs (human): 54 (85.7%) patients (%) | Treatment-emergent SAEs (human): 7 (11.1%) patients (%) | Treatment-emergent injection site reactions (ISRs) (human): 1 (1.6%) patients (%) | Treatment-emergent neurologic AEs (human): 8 (12.7%) patients (%) | Treatment-emergent skeletal muscle-related events resulting in early treatment discontinuation (human): 13 (20.6%) patients (%) | back pain (human): 7.9% | early termination due to musculoskeletal and connective tissues disorders SOC events (human): 14 [22.2%] patients [%] | fatigue (human): 7.9% | headache (human): 6.3% | insomnia (human): 1 (1.6%) reports (%) | muscle spasms (human): 11.1% | muscular weakness (human): 6.3% | palpitations (human): 0 reports (%) | paraesthesia (human): 6.3% | patients who prematurely discontinued study treatment due to a TEAE (human): 16 (25.4%) patients (%) | patients who prematurely terminated study treatment due to adverse events (human): 16 (25.4%) patients (%) | rate of AEs (human): 86% | vertigo (human): 1 (1.6%) reports (%) | Treatment-emergent neurocognitive disorders: zero
